The test system of assay [1] is E. coli 1346. The assay is described as follows: Antibacterial activity of the products per se, serial dilution method in liquid medium (Test E). Format: cell-based. The settings on record: product per se; for MIC E. coli 1346 (E): test E; for MIC E. coli 1346: Table 3, liquid medium. The text has this:
The antibacterial activity of the products per se is illustrated on the basis of Table 3 hereinafter, the minimum inhibitory concentration […] in vitro against E. coli 1346 being determined using the serial dilution method in liquid medium: […]

The test system of assay [2] is Citrobacter freundii 1982. The assay is described as follows: MIC in vitro of a 1:4 combination of ceftriaxone with a compound of formula I (Test D). The assay is classed as cell-based. Particulars: for MIC C. freundii 1982 (D): test D; for MIC C. freundii 1982: Table 2. As for the experimental part: The minimum inhibitory concentration in vitro ([…]) of a 1:4 combination of ceftriaxone with a compound of formula I against Citrobacter freundii 1982 was measured and compiled in Table 2 hereinafter.

The mark [3] stands for this setting: Table 4, 1:4 combination of ceftriaxone with the compound.
Setting [4] is: Table 5, particularly preferred products.
Where [5] appears, read: Table 5, particularly preferred products, 1:4 combination with ceftriaxone.
[6] abbreviates: 1:4 combination of ceftriaxone with the compound.

SMILES strings stand for the structures. In brackets after ≈: the same amount, converted by molar mass. Where a name gives a salt, the structure may show the parent alone. A value given as a limit tells only on which side of the number the result lay.

As for `O=C([O-])C1=C(CSc2cc[n+](Cc3ccccc3)cc2)C[C@@H]2CN(C(=O)C(F)(F)F)[C@@H]3C(=O)N1[C@H]23` [52(d), (1aS,3aR,6bR)-5-(1-Benzyl-pyridin-4-yliosulphanylmethyl)-1-oxo-2-trifluoroacetyl-1a,2,3,3a,4,6b-hexahydro-1H-2,6a-diazacyclobut[cd]indene-6-carboxylate], the “MIC E. coli 1346 (E)” value in assay [1] (Table 4) is 2 µg/mL (≈ 3.97 µM). The “MIC C. freundii 1982 (D)” value in assay [2] (setting [3]) was 1 µg/mL.
`O=C(O)C1=C(CO)S[C@@H]2CN(C(=O)Nc3ccc(O)cc3)[C@@H]3C(=O)N1[C@@H]32` [41(d) Byproduct]: the “MIC E. coli 1346 (E)” value in assay [1] (Table 4) is > 32 µg/mL. Further, in assay [2] (setting [3]), the “MIC C. freundii 1982 (D)” value came out at 1 µg/mL.
Regarding `NC(=O)c1ccc(NC(=O)N2C[C@H]3CC(CSc4ccncc4)=C(C(=O)O)N4C(=O)[C@@H]2[C@@H]34)cc1` [18(e), (1aS,3aR,6bR)-2-(4-Carbamoyl-phenylcarbamoyl)-1-oxo-5-(pyridin-4-ylsulphanylmethyl)-1a,2,3,3a,4,6b-hexahydro-1H-2,6a-diazacyclobut[cd]indene-6-carboxylic acid], in assay [1] (setting [4]), the “MIC E. coli 1346 (E)” value was > 32 µg/mL. For the same molecule, in assay [2] (setting [5]), the “MIC C. freundii 1982 (D)” value was 0.12 µg/mL.
Regarding `CC(=O)N1C[C@H]2CC(CSc3nc[nH]n3)=C(C(=O)O)N3C(=O)[C@@H]1[C@@H]23` [76(a), (1aS,3aR,6bR)-2-Acetyl-1-oxo-5-(1H-1,2,4-triazol-3-ylsulphanylmethyl)-1a,2,3,3a,4,6b-hexahydro-1H-2,6a-diazacyclobut[cd]indene-6-carboxylic acid sodium salt], in assay [1] (Table 4), the “MIC E. coli 1346 (E)” value was found to be 2 µg/mL. The “MIC C. freundii 1982 (D)” value in assay [2] (setting [3]) worked out at 1 µg/mL.
Consider `Cc1ccc(S(=O)(=O)OC2=C(C(=O)O)N3C(=O)[C@@H]4[C@H]3[C@H](C2)CN4C(=O)Nc2ccc(O)cc2)cc1` [9(i), (1aS,3aR,6bR)-2-(4-Hydroxy-phenylcarbamoyl)-5-(4-methyl-phenylsulphonyloxy)-1-oxo-1a,2,3,3a,4,6b-hexahydro-1H-2,6a-diazacyclobut[cd]indene-6-carboxylic acid sodium salt], for which the “MIC E. coli 1346” value in assay [1] amounted to 16 µg/mL. The “MIC C. freundii 1982” value in assay [2] (setting [6]) was 2 µg/mL.
On to `Cc1nnc(SCC2=C(C(=O)O)N3C(=O)[C@@H]4[C@H]3[C@H](C2)CN4C(=O)CSc2ccncc2)s1` [65(c), (1aS,3aR,6 bR)-5-(S-Methyl-1,3,4-thiadiazol-2-ylsulphanylmethyl)-1-oxo-2-(pyridin-4-ylsulphanylacetyl)-1a,2,3,3a,4,6b-hexahydro-1H-2,6a-diazacyclobut[cd]indene-6-carboxylic acid sodium salt], for which the “MIC E. coli 1346 (E)” value in assay [1] (Table 4) was determined as 2 µg/mL. Further, in assay [2] (setting [3]), the “MIC C. freundii 1982 (D)” value is 1 µg/mL.
As to `Cn1nnnc1SC1=C(C(=O)O)N2C(=O)[C@@H]3[C@H]2[C@H](C1)CN3C(=O)Nc1ccc(O)cc1` [Example 3(a), (1aS,3aR,6bR)-2-(4-Hydroxy-phenylcarbamoyl)-5-(1-methyl-1H-tetrazol-5-ylsulphanyl)-1-oxo-1a,2,3,3a,4,6b-hexahydro-1H-2,6a-diazacyclobut[cd]indene-6-carboxylic acid sodium salt], the “MIC E. coli 1346” value in assay [1] amounted to 128 µg/mL. Also, in assay [2] (setting [6]), the “MIC C. freundii 1982” value was 0.25 µg/mL.
With `CC(=O)N1C[C@H]2CC(Sc3nnc(N)s3)=C(C(=O)O)N3C(=O)[C@@H]1[C@@H]23` [3(ae), (1aS,3aR,6bR)-2-Acetyl-5-(5-amino-1,3,4-thiadiazol-2-ylsulphanyl)-1-oxo-1a,2,3,3a,4,6b-hexahydro-1H-2,6a-diazacyclobut[cd]indene-6-carboxylic acid sodium salt], in assay [1] (Table 4), the “MIC E. coli 1346 (E)” value amounted to 4 µg/mL. Besides, in assay [2] (setting [3]), the “MIC C. freundii 1982 (D)” value was 4 µg/mL.
For the molecule `N#C/C=C\C1=C(C(=O)O)N2C(=O)[C@@H]3[C@H]2[C@H](C1)CN3C(=O)Nc1ccc(O)cc1` [49(a), (Z) -(1aS,3aR,6bR)-5-(2-Cyanovinyl)-2-(4-hydroxyphenylcarbamoyl)-1-oxo-1a,2,3,3a,4,6b-hexahydro-1H-2,6a-diazacyclobut[cd]indene-6-carboxylic acid sodium salt], the “MIC E. coli 1346 (E)” value in assay [1] (Table 4) is > 32 µg/mL. Besides, the “MIC C. freundii 1982 (D)” value in assay [2] (setting [3]) was determined as 2 µg/mL.
For the molecule `Cc1nnc(SCC2=C(C(=O)O)N3C(=O)[C@@H]4[C@H]3[C@H](C2)CN4C(=O)CSc2nnc(N)s2)s1` [65(f), (1aS,3aR,6bR)-2-(2-Amino-1,3,4-thiadiazol-5-ylsulphanylacetyl)-5-(5-methyl-1,3,4-thiadiazol-2-ylsulphanylmethyl)-1-oxo-1a,2,3,3a,4,6b-hexahydro-1H-2,6a-diazacyclobut[cd]indene-6-carboxylic acid sodium salt], the “MIC E. coli 1346 (E)” value in assay [1] (Table 4) is 2 µg/mL. Moreover, the “MIC C. freundii 1982 (D)” value in assay [2] (setting [3]) is 0.5 µg/mL.
For `Nc1nnc(SCC2=C(C(=O)O)N3C(=O)[C@@H]4[C@H]3[C@H](C2)CN4C(=O)Nc2ccc(O)cc2)s1` [18(d), (1aS,3aR,6bR)-5-(5-Amino-1,3,4-thiadiazol-2-ylsulphanylmethyl)-2-(4-hydroxy-phenylcarbamoyl)-1-oxo-1a,2,3,3a,4,6b-hexahydro-1H-2,6a-diazacyclobut[cd]indene-6-carboxylic acid sodium salt], in assay [1] (setting [4]), the “MIC E. coli 1346 (E)” value came to 32 µg/mL. The “MIC C. freundii 1982 (D)” value in assay [2] (setting [5]) was ≤ 0.06 µg/mL.
With `O=C(O)C1=C(CSc2ncccn2)C[C@@H]2CN[C@@H]3C(=O)N1[C@H]23` [Example 71, (1aS,3aR,6bR)-1-Oxo-5-(pyrimidin-2-ylsulphanylmethyl)-1a,2,3,3a,4,6b-hexahydro-1H-2,6a-diazacyclobut[cd]indene-6-carboxylic acid trifluoroacetate], in assay [1] (Table 4), the “MIC E. coli 1346 (E)” value stood at 8 µg/mL. Besides, in assay [2] (setting [3]), the “MIC C. freundii 1982 (D)” value is 2 µg/mL.
For `CO/N=C(\C(=O)N1C[C@H]2CC(Sc3nnnn3C)=C(C(=O)O)N3C(=O)[C@@H]1[C@@H]23)c1csc(N)n1` [Example 7, (Z)-(1aS,3aR,6bR)-2-[(2-Amino-thiazol-4-yl)-methoxyiminoacetyl]-1-oxo-5-(1-methyl-1H-tetrazol-5-ylsulphanyl)-1a,2,3,3a,4,6b-hexahydro-1H-2,6a-diazacyclobut[cd]indene-6-carboxylic acid sodium salt], in assay [1], the “MIC E. coli 1346” value stood at 64 µg/mL. Moreover, the “MIC C. freundii 1982” value in assay [2] (setting [6]) amounted to 16 µg/mL.
For `CCOC(=O)N1C[C@H]2CC(CSc3nnnn3C)=C(C(=O)O)N3C(=O)[C@@H]1[C@@H]23` [Example 62, (1aS,3aR,6bR)-5-(1-Methyl-1H-tetrazol-5-ylsulphanylmethyl)-1-oxo-1a,2,3,3a,4,6b-hexahydro-1H-2,6a-diazacyclobut[cd]indene-2,6-dicarboxylic acid 2-ethyl ester], the “MIC E. coli 1346 (E)” value in assay [1] (Table 4) worked out at 16 µg/mL (≈ 40.6 µM). In addition, the “MIC C. freundii 1982 (D)” value in assay [2] (setting [3]) is 0.5 µg/mL.
Consider `COc1cc(CNC(=O)N2C[C@H]3CC(Sc4nnnn4C)=C(C(=O)O)N4C(=O)[C@@H]2[C@@H]34)on1` [3(h), (1aS,3aR,6bR)-2-(3-Methoxy-isoxazol-5-ylmethylcarbamoyl)-5-(1-methyl-1H-tetrazol-5-ylsulphanyl)-1-oxo-1a,2,3,3a,4,6b-hexahydro-1H-2,6a-diazacyclobut[cd]indene-6-carboxylic acid sodium salt], for which the “MIC E. coli 1346” value in assay [1] worked out at 16 µg/mL. Further, the “MIC C. freundii 1982” value in assay [2] (setting [6]) came out at 2 µg/mL.
With `NC(=O)c1ccc(NC(=O)N2C[C@H]3CC(Sc4ccncc4)=C(C(=O)O)N4C(=O)[C@@H]2[C@@H]34)cc1` [3(n), (1aS,3aR,6bR)-2-(4-Carbamoyl-phenylcarbamoyl)-1-oxo-5-(pyridin-4-ylsulphanyl)-1a,2,3,3a,4,6b-hexahydro-1H-2,6a-diazacyclobut[cd]indene-6-carboxylic acid sodium salt], the “MIC E. coli 1346 (E)” value in assay [1] (Table 4) is > 32 µg/mL. In assay [2] (setting [3]), the “MIC C. freundii 1982 (D)” value came to 1 µg/mL.
As to `CS(=O)(=O)OC1=C(C(=O)O)N2C(=O)[C@@H]3[C@H]2[C@H](C1)CN3C(=O)NCc1ccc(O)c(O)c1` [9(d), (1aS,3aR,6bR)-2-(3,4-Dihydroxy-benzylcarbamoyl)-5-methylsulphonyloxy-1-oxo-1a,2,3,3a,4,6b-hexahydro-1H-2,6a-diazacyclobut[cd]indene-6-carboxylic acid sodium salt], in assay [1], the “MIC E. coli 1346” value stood at 32 µg/mL. Moreover, the “MIC C. freundii 1982” value in assay [2] (setting [6]) stood at 2 µg/mL.
On to `O=C(O)C1=C(CSc2ccncc2)C[C@@H]2CN(C(=O)NCc3ccc(O)cc3)[C@@H]3C(=O)N1[C@H]23` [18(i), (1aS,3aR,6bR)-2-(4-Hydroxy-benzylcarbamoyl)-1-oxo-5-(pyridin-4-ylsulphanylmethyl)-1a,2,3,3a,4,6b-hexahydro-1H-2,6a-diazacyclobut[cd]indene-6-carboxylic add sodium salt], for which the “MIC E. coli 1346 (E)” value in assay [1] (Table 4) came to 32 µg/mL. The “MIC C. freundii 1982 (D)” value in assay [2] (setting [3]) was determined as 4 µg/mL.
On to `NC(=O)CSC1=C(C(=O)O)N2C(=O)[C@@H]3[C@H]2[C@H](C1)CN3C(=O)C(F)(F)F` [3(al), (1aS,3aR,6bR)-5-Carbamoylmethylsulphanyl-1-oxo-2-trifluoroacetyl-1a,2,3,3a,4,6b-hexahydro-1H-2,6a-diazacyclobut[cd]indene-6-carboxylic acid sodium salt], for which the “MIC E. coli 1346 (E)” value in assay [1] (Table 4) worked out at 8 µg/mL. Moreover, the “MIC C. freundii 1982 (D)” value in assay [2] (setting [3]) is 2 µg/mL.
`NC(=O)CSC1=C(C(=O)O)N2C(=O)[C@@H]3[C@H]2[C@H](C1)CN3C(=O)Nc1ccc(O)cc1` [3(p), (1aS,3aR,6bR)-5-Carbamoylmethylsulphanyl-2-(4-hydroxyphenylcarbamoyl)-1-oxo-5-(pyridin-4-ylsulphanyl)-1a,2,3,3a,4,6b-hexahydro-1H-2,6a-diazacyclobut[cd]indene-6-carboxylic acid sodium salt]: the “MIC E. coli 1346 (E)” value in assay [1] (Table 4) was found to be 32 µg/mL. Moreover, the “MIC C. freundii 1982 (D)” value in assay [2] (setting [3]) was found to be 1 µg/mL.

Values taken from patent US5464617A, “β-lactam compounds” (Hoffmann-La Roche Inc., priority 1994, dated 1995).
